We go through 14 compounds from patent US11046709B2, “Fused 1,4-diazepines as BET bromodomain inhibitors” (THE REGENTS OF THE UNIVERSITY OF MICHIGAN, priority 2017, dated 2021).

In data set [1] the test system is MOLM-13. The experiment in a line: Cell growth inhibition, 4-day proliferation assay, MOLM-13. It counts as cell-based. Conditions: Homo sapiens.
In data set [2] the target is T1, recombinant BRD4 BD1 (Homo sapiens, UniProt O60885).
T1 construct: for recombinant BRD4 BD1 and BRD4 BD2 proteins
As to the kind of experiment: Competitive fluorescence-polarization (FP) binding assay, BRD4 BD1. The protocol: Fluorescence Polarization (FP) competitive binding studies were carried out using a FAM labeled fluorescent probe, see, e.g., Cpd. No. 350 of US 2014/0256706, to determine binding affinities of representative Compounds of the Disclosure for recombinant BRD4 BD1 and BRD4 BD2 proteins. Equilibrium dissociation constants (Kd) values of the fluorescent probe to BRD4 BD1 and BD2 proteins were determined from protein saturation experiments by monitoring the total fluorescence polarization of mixtures composed with the fluorescent probe at a fixed concentration and proteins with increasing concentrations up to full saturation. Serial dilutions of testing proteins were mixed with the fluorescent probe to a final volume of 200 μl in the assay buffer (100 mM phosphate buffer, pH=6.5, 0.01% Triton X-100 (Sigma, 282103) being added right before assays). Final fluorescent probe concentration was 1.5 nM for both proteins. Plates were incubated at room temperature for 30 minutes with gentle shaking to assure equilibrium. FP values in millipolarization units (mP) were measured using the Infinite M-1000 plate reader (Tecan U.S., Research Triangle Park, N.C.) in Microfluor 1 96-well, black, round-bottom plates (Thermo Scientific, Waltham, Mass.) at an excitation wavelength of 485 nm and an emission wavelength of 530 nm. Kd values of the fluorescent probe, which were calculated by fitting the sigmoidal dose-dependent FP increases as a function of protein concentrations using Graphpad Prism 6.0 software (Graphpad Software, San Diego, Calif.), are 5.5 and 3.0 nM to BDR4 BD1 and 2, respectively.
The IC50 and Ki values of compounds were determined in a competitive binding experiment. See US 2014/0256706. Mixtures of 10 μl of the tested compounds in assay buffer with 40% Ethylene Glycol and 190 μl of preincubated protein/probe complex solution in the assay buffer (100 mM potassium phosphate, pH 6.5, 0.01% Triton X-100) were added into assay plates which were incubated at room temperature for 30 minutes with gentle shaking. Final concentrations of proteins were 10 and 6 nM in assays for BRD4 BD1 and BD2, respectively. Final probe concentration is 1.5 nM in both assays. Negative controls containing protein/probe complex only (equivalent to 0% inhibition), and positive controls containing only free probes (equivalent to 100% inhibition), were included in each assay plate. FP values were measured as described above. IC50 values were determined by nonlinear regression fitting of the competition curves. Instead of being calculated from IC50 values as described before. Ki values of competitive inhibitors were obtained directly by nonlinear regression fitting as well, based upon the Kd values of the probe to different proteins, and concentrations of the proteins and probes in the competitive assays (US 2014/0256706; Wang, FEBS Lett. 360:111 (1995); Zhang et al., Analytical Biochemistry, 331:138 (2004)).
Representative compounds in Table 5 were evaluated for their binding affinities to BRD4 BD1 and BD2 proteins using the Competitive Fluorescence-Polarization (FP) Assays described in Example 6, with the data included in Table 6.

Data set [3] has as its target T2, recombinant BRD4 BD2 (Homo sapiens, UniProt O60885).
T2 construct: for recombinant BRD4 BD1 and BRD4 BD2 proteins
The experiment in a line: Competitive fluorescence-polarization (FP) binding assay, BRD4 BD2.

Data set [4] concerns MDA-MB-231. The experiment in a line: Cell growth inhibition, 4-day proliferation assay, MDA-MB-231. It counts as cell-based. Conditions: Homo sapiens. In a few lines:
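WST-8 colorimetric read-out (absorbance 450 nm after 1-2 h) after 4-day compound exposure of 3,000-10,000 cells/well at 37 °C; IC50 from variable-slope sigmoid fit of DMSO-normalized signal.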

A short description of data set [5]: Plasma exposure after oral gavage in mice, LC-MS/MS. The format is in vivo. Conditions: mouse, in vivo, po, 25 mg/kg. On the procedure:
For a number of representative compounds in Table 5, their plasma exposures with oral administration in mice via oral gavage were determined by LC-MS/MS, with the data shown in Table 9.

Setting [6] is: MOLM-13, WST-8 assay, Table 7, read-out: Cell growth inhibition (IC50 (nM)) MOLM-13.
The mark [7] stands for this setting: competitive FP, Table 6, read-out: IC50 as determinined in FP assays BRD4 BD1.
Setting [8] is: competitive FP, Table 6, read-out: IC50 as determinined in FP assays BRD4 BD2.
Where [9] appears, read: MDA-MB-231, WST-8 assay, Table 7, read-out: Cell growth inhibition (IC50 (nM)) MDA-MB-231.
[10] abbreviates: MOLM-13, 96 h, read-out: Cell IC50 (nM) MOLM13.

Where two headings read alike, the source gives them in different places. A value given as a limit tells only on which side of the number the result lay.

For `Cc1c(C#Cc2ccccn2)sc2c1C(c1ccc(Cl)cc1)=N[C@@H](CC(=O)NC1CCNCC1)c1nnc(C)n1-2` [Compound 131, (S)-2-(4-(4-chlorophenyl)-3,9-dimethyl-2-(pyridin-2-ylethynyl)-6H-thieno[3,2-f][1,2,4]triazolo[4,3-a][1,4]diazepin-6-yl)-N-(piperidin-4-yl)acetamide], the IC50 (usually the concentration at which inhibition is half-maximal) in data set [1] (setting [6]) turned out to be 188 nM; in data set [2] (setting [7]), 12.6 nM; in data set [3] (setting [8]) it was 26.9 nM; in data set [4] (setting [9]) it was 243 nM.
`Cc1c(C#Cc2ccccn2)sc2c1C(c1ccc(Cl)cc1)=N[C@@H](CC(=O)N1CCNCC1)c1nnc(C)n1-2` [Compound 122, (S)-2-(4-(4-chlorophenyl)-3,9-dimethyl-2-(pyridin-2-ylethynyl)-6H-thieno[3,2-f][1,2,4]triazolo[4,3-a][1,4]diazepin-6-yl)-1-(piperazin-1-yl)ethan-1-one]: the IC50 in data set [1] (setting [6]) is 15.3 nM; in data set [2] (setting [7]) it was 14.2 nM; in data set [3] (setting [8]) it was 34.6 nM; in data set [4] (setting [9]), 19.4 nM.
For `Cc1c(C#Cc2cccnc2)sc2c1C(c1ccc(Cl)cc1)=N[C@@H](CC(=O)O)c1nnc(C)n1-2` [Compound 112, (S)-2-(4-(4-chlorophenyl)-3,9-dimethyl-2-(pyridin-3-ylethynyl)-6H-thieno[3,2-f][1,2,4]triazolo[4,3-a][1,4]diazepin-6-yl)acetic acid], in that order: 644 nM, 86.2 nM, 23 nM and 1860 nM.
For `Cc1c(C#Cc2ccccn2)sc2c1C(c1ccc(Cl)cc1)=N[C@@H](Cc1nnc(C(C)C)o1)c1nnc(C)n1-2` [Compound 135, (S)-2-((4-(4-chlorophenyl)-3,9-dimethyl-2-(pyridin-2-ylethynyl)-6H-thieno[3,2-f][1,2,4]triazolo[4,3-a][1,4]diazepin-6-yl)methyl)-5-isopropyl-1,3,4-oxadiazole], in that order: 13.8 nM, 10 nM, 45 nM and 24.5 nM.
For `Cc1nnc(C[C@@H]2N=C(c3ccc(Cl)cc3)c3c(sc(C#Cc4ccccn4)c3C)-n3c(C)nnc32)s1` [Compound 134, (S)-4-(4-chlorophenyl)-3,9-dimethyl-6-((5-methyl-1,3,4-thiadiazol-2-yl)methyl)-2-(pyridin-2-ylethynyl)-6H-thieno[3,2-f][1,2,4]triazolo[4,3-a][1,4]diazepine] the same measures were 11.9 nM, 7.88 nM, 59.2 nM and 85.2 nM.
Take `Cc1nnc(C[C@@H]2N=C(c3ccc(Cl)cc3)c3c(sc(C#Cc4ccccn4)c3C)-n3c(C)nnc32)o1` [Compound 129, (S)-2-((4-(4-chlorophenyl)-3,9-dimethyl-2-(pyridin-2-ylethynyl)-6H-thieno[3,2-f][1,2,4]triazolo[4,3-a][1,4]diazepin-6-yl)methyl)-5-methyl-1,3,4-oxadiazole]: the IC50 in data set [2] (setting [7]) amounted to 9.4 nM; in data set [3] (setting [8]) it was 27.6 nM; in data set [4] (setting [9]), 6 nM.
As for `Cc1c(C#Cc2cncn2C)sc2c1C(c1ccc(Cl)cc1)=N[C@@H](CC(N)=O)c1nnc(C)n1-2` [Compound 168, (S)-2-(4-(4-chlorophenyl)-3,9-dimethyl-2-((1-methyl-1H-imidazol-5-yl)ethynyl)-6H-thieno[3,2-f][1,2,4]triazolo[4,3-a][1,4]diazepin-6-yl)acetamide], the IC50 in data set [1] (setting [6]) was determined as 145 nM. For the same compound, in data set [5], the concentration at 1 h was 80 ng/mL, the concentration at 3 h is 22 ng/mL and the concentration at 6 h is 20 ng/mL. The IC50 in data set [4] (setting [9]) was 716 ± 162 nM.
For `CCNC(=O)C[C@@H]1N=C(c2ccc(Cl)cc2)c2c(sc(C#Cc3cnn(C)c3)c2C)-n2c(C)nnc21` [Compound 167, (S)-2-(4-(4-chlorophenyl)-3,9-dimethyl-2-((1-methyl-1H-pyrazol-4-yl)ethynyl)-6H-thieno[3,2-f][1,2,4]triazolo[4,3-a][1,4]diazepin-6-yl)-N-ethylacetamide] the same measures were 26.7 nM, 12 ng/mL, less than 1 ng/mL, less than 1 ng/mL and 129 ± 40 nM.
`CCNC(=O)C[C@@H]1N=C(c2ccc(Cl)cc2)c2c(sc(C#Cc3cncn3C)c2C)-n2c(C)nnc21` [Compound 169, (S)-2-(4-(4-chlorophenyl)-3,9-dimethyl-2-((1-methyl-1H-imidazol-5-yl)ethynyl)-6H-thieno[3,2-f][1,2,4]triazolo[4,3-a][1,4]diazepin-6-yl)-N-ethylacetamide]: the IC50 in data set [1] (setting [6]) came out at 63.9 nM. Also, in data set [5], the concentration at 1 h is 611 ng/mL, the concentration at 3 h worked out at 29 ng/mL and the concentration at 6 h was determined as 5 ng/mL. For the same compound, the IC50 in data set [4] (setting [9]) was determined as 203 ± 57 nM.
With `CNC(=O)CCn1cc(C#Cc2sc3c(c2C)C(c2ccc(Cl)cc2)=N[C@@H](C)c2nnc(C)n2-3)cn1` [Compound 104, (S)-3-(4-((4-(4-chlorophenyl)-3,6,9-trimethyl-6H-thieno[3,2-f][1,2,4]triazolo[4,3-a][1,4]diazepin-2-yl)ethynyl)-1H-pyrazol-1-yl)-N-methylpropanamide], the figures for the IC50 in data set [2] (setting [7]), in data set [3] (setting [8]) and in data set [4] (setting [9]) were 4.9 nM, 45.1 nM and 40 ± 10 nM, respectively.
Regarding `Cc1c(C#Cc2cnn(CCC(N)=O)c2)sc2c1C(c1ccc(Cl)cc1)=N[C@@H](C)c1nnc(C)n1-2` [Compound 103, (S)-3-(4-((4-(4-chlorophenyl)-3,6,9-trimethyl-6H-thieno[3,2-f][1,2,4]triazolo[4,3-a][1,4]diazepin-2-yl)ethynyl)-1H-pyrazol-1-yl)propanamide], the IC50 in data set [2] stood at 4 nM; in data set [3], 15.4 nM; in data set [4] (MDA-MB-231, read-out: Cell growth inhibition (IC50 (nM)) MDA-MB-231) it was 60 ± 20 nM.
With `C#Cc1sc2c(c1C)C(c1ccc(Cl)cc1)=NCc1nnc(C)n1-2` [compound 19, 4-(4-chlorophenyl)-2-ethynyl-3,9-dimethyl-6H-thieno[3,2-f][1,2,4]triazolo[4,3-a][1,4]diazepine], the IC50 stood at 2120 nM in data set [1] (setting [10]), 191 nM in data set [2] and 227 nM in data set [3].
For `C#Cc1sc2c(c1C)C(c1ccc(Cl)cc1)=N[C@@H](C)c1nnc(C)n1-2` [compound 20, (S)-4-(4-chlorophenyl)-2-ethynyl-3,6,9-trimethyl-6H-thieno[3,2-f][1,2,4]triazolo[4,3-a][1,4]diazepine] the same measures were 16 nM, 103 nM and 41.1 nM.
For `Cc1c(C#Cc2cnn(C)c2)sc2c1C(c1ccc(Cl)cc1)=N[C@@H](CC(N)=O)c1nnc(C)n1-2` [Compound 166, (S)-2-(4-(4-chlorophenyl)-3,9-dimethyl-2-((1-methyl-1H-pyrazol-4-yl)ethynyl)-6H-thieno[3,2-f][1,2,4]triazolo[4,3-a][1,4]diazepin-6-yl)acetamide], in data set [1] (setting [6]), the IC50 turned out to be 28.9 nM. Besides, in data set [5], the concentration at 1 h was determined as 55 ng/mL, the concentration at 3 h came to 30 ng/mL and the concentration at 6 h was less than 1 ng/mL. In addition, in data set [4] (setting [9]), the IC50 turned out to be 214 ± 42.2 nM.
